{
  "source": "patent US10112978B2",
  "about": "“Peptide and use thereof” (OSAKA UNIVERSITY, priority 2014, dated 2018)",
  "key": {"[1]": {"tested_on": "PMA-differentiated THP-1 cells", "test": "Cytokine and chemokine production in PMA-differentiated THP-1 cells (ELISA)", "assay_type": "cell-based, human", "experimental": "THP-1 cells were suspended at 5×10^5 cells/mL in RPMI1640 medium containing 50 ng/mL PMA (phorbol 12-myristate 13-acetate) and 10% FBS, and seeded at 5×10^5 cells/well on a 24-well plate. The cells were cultured in a CO2 incubator for 2 days for differentiation into macrophages. After the 2-day culture, the medium was removed, an OSK-1 solution in RPMI1640 medium containing 10% FBS was added to the wells, and overnight culture was performed. Sixteen hours after the addition, the culture supernatant was harvested, and the cytokine concentrations in the supernatant were measured by ELISA.\nThe experiment in this example was performed in the same manner as in Example 3, and the IL-1β, IL-18, TNFα, IL-6, RANTES, MIP-1α and MIP-1β concentrations in the culture supernatant were measured."}, "[2]": {"tested_on": "inflammasomes", "test": "Inflammasome activation: IL-1β production in THP-1 cells with or without LPS priming, cathepsin B inhibitor or caspase-1 inhibitor", "assay_type": "cell-based, human", "experimental": "THP-1 cells were suspended at 1×10^6 cells/mL in RPMI1640 medium containing 1 μg/mL LPS and 10% FBS, and incubated in a CO2 incubator for 3 hours for cell priming. The cell suspension was centrifugated, the cells were resuspended at 1×10^6 cells/mL in RPMI1640 medium containing 10% FBS, and the cell suspension was added to a 96-well plate at 100 μL/well. The cathepsin B inhibitor Ca-074-Me (final concentration: 10 μM), the caspase-1 inhibitor Z-YVAD-FMK (final concentration: 10 μM) or the medium was added to the wells. After that, OSK-1 or the medium was added to the wells, and the cells were cultured in a CO2 incubator. After 16 hours, the culture supernatant was harvested, and the cytokine concentrations in the supernatant were measured by ELISA."}, "[3]": {"tested_on": "LPS-primed RAW 264.7 cells", "test": "Cytokine production in LPS-primed RAW 264.7 cells (ELISA)", "assay_type": "cell-based, mouse", "conditions": "about 16 hours", "experimental": "RAW 264.7 cells were suspended at 1×10^6 cells/mL in DMEM medium containing 50 ng/mL LPS and 10% FBS, and incubated in a CO2 incubator for 3 hours for cell priming. The cell suspension was centrifugated, the cells were resuspended at 1×10^6 cells/mL in DMEM medium containing 10% FBS, and the cell suspension was added to a 24-well plate at 500 μL/well. An OSK-1 solution was prepared at a 2-fold higher concentration than the final concentration in DMEM medium containing 10% FBS and added to the plate at 500 μL/well. After about 16 hours, the culture supernatant was harvested, and the cytokine concentrations in the supernatant were measured by ELISA."}, "[4]": {"tested_on": "mouse bone marrow-derived dendritic cells", "test": "Cytokine production in mouse bone marrow-derived dendritic cells (ELISA)", "assay_type": "cell-based", "conditions": "about 16 hours", "experimental": "Bone marrow cells were harvested from the thigh bone of a C57BL/6 mouse, seeded in RPMI1640 medium containing […] GM-CSF (granulocyte macrophage colony-stimulating factor) and 10% FBS, and cultured for 3 days. After the 3-day culture, a fresh medium was added and culture was continued for additional 4 days. The cells not adherent on the culture plate were harvested and regarded as bone marrow-derived dendritic cells. The cells were suspended at 2×10^6 cells/mL in RPMI1640 medium containing 10% FBS, and the cell suspension was added to a 24-well plate at 500 μL/well. An OSK-1 solution was prepared at a 2-fold higher concentration than the final concentration in RPMI1640 medium containing 10% FBS and added to the plate at 500 μL/well. After about 16 hours, the culture supernatant was harvested, and the cytokine concentrations in the supernatant were measured by ELISA."}, "[5]": {"tested_on": "C57BL/6 mice", "test": "Induction of WT1-specific immunity in mice (ELISpot of splenocytes)", "assay_type": "in vivo", "conditions": "group (3): WT1 peptide 15 μg/mouse + OSK-1 100 μg/mouse, once a week for 4 weeks", "experimental": "The OSK-1 peptide and a WT1 peptide were conjugated via ε-Acp as a spacer to form an “OSK-1-WT1 conjugate vaccine”. The OSK-1-WT1 conjugate vaccine was evaluated for the ability to induce WT1-specific immunity in mice. Mice were divided into the following 5 groups (3 animals per group): (1) physiological saline, (2) WT1 peptide (15 μg/mouse)+Incomplete Freund's Adjuvant (IFA, SIGMA; Cat#F5506, 50 μL/mouse), (3) WT1 peptide (15 μg/mouse)+OSK-1 (100 μg/mouse), (4) OSK-1-WT1 conjugate vaccine (50 μg/mouse), and (5) OSK-1-WT1 conjugate vaccine (300 μg/mouse). In each group, the test substance was administered to C57BL/6 mice once a week for 4 weeks. At 2 weeks after the 4th administration, the spleen was excised from each immunized mouse, and the ELISpot assay was performed. The specific procedure is as follows. Splenocytes were prepared from the excised spleen and seeded on a filter plate coated with an anti-IL-4 antibody or an anti-IFNγ antibody. The WT1 peptide or the OSK-1-WT1 peptide was added to the wells, and the splenocytes were cultured for 3 days. After that, each well of the filter plate was stained and the spots of IL-4- or IFNγ-producing cells was counted."}, "[6]": {"tested_on": "C3H/HeN mice", "test": "Hair-growth effect in shaved mice", "assay_type": "in vivo", "experimental": "The dorsal skin of 8-week-old male C3H/HeN mice in the resting phase of the hair cycle was shaved using a hair clipper and a shaver with caution to avoid damage to the skin. The shaved area was 2×4 cm. To the shaved area, 100 μL of a 0.02% (w/v), 0.1% (w/v) or 0.5% (w/v) OSK-1 solution was applied once daily for 14 days starting from 3 days after the shaving. For the control group, physiological saline was applied, and for the positive control group, 3% (w/v) minoxidil was applied. The day of shaving was designated as Day 0. On Day 3, Day 7, Day 10, Day 14 and Day 17, the percentage of the area of hair regrowth relative to the entire shaved area in each mouse was scored according to the following criteria: 0% was defined as score 0, 20% or less was defined as score 1, 40% or less was defined as score 2, 60% or less was defined as score 3, 80% or less was defined as score 4, and 100% or less was defined as score 5. In addition, 10 strands of newly grown hair in the shaved area of each mouse were pulled out on Day 17, the length of each strand of newly grown hair was measured under a stereomicroscope, and the measured lengths were summed as the hair length (mm) of each animal."}},
  "data": [
    {"sequence": "ELKLIFLHRLKRLRKRLKRK (Ac-ELKLIFLHRLKRLRKRLKRK-NH2) [OSK-1]", "values": [
      {"measurement": "production of the chemokines and cytokines (IL-1β, IL-18, TNFα, IL-6, RANTES, MIP-1α and MIP-1β)", "setting": "[1]; Example 11, ELISA", "value": "induced the production of the chemokines and cytokines in the PMA-differentiated THP-1 cells in an OSK-1 concentration dependent manner"},
      {"measurement": "production of the cytokines (IL-1β, IL-18, TNFα and IL-6 concentrations in the culture supernatant)", "setting": "[1]; OSK-1 at 30 μg/mL, 16 hours, ELISA", "value": "strongly induced the production of the cytokines"},
      {"measurement": "IL-1β production", "setting": "[2]; LPS-primed THP-1 cells versus non-primed THP-1 cells, 16 hours", "value": "induced the production of IL-1β only in the LPS-primed THP-1 cells"},
      {"measurement": "IL-1β production", "setting": "[2]; LPS-primed THP-1 cells, in the presence of caspase-1 inhibitor Z-YVAD-FMK 10 μM", "value": "also inhibited by Z-YVAD-FMK"},
      {"measurement": "IL-1β production", "setting": "[2]; LPS-primed THP-1 cells, in the presence of cathepsin B inhibitor Ca-074-Me 10 μM", "value": "inhibited by Ca-074-Me"},
      {"measurement": "production of the cytokines (IL-1β, IL-18, TNFα and IL-6)", "setting": "[3]", "value": "induced the production of the cytokines in the LPS-primed RAW 264.7 cells in an OSK-1 concentration dependent manner"},
      {"measurement": "production of the cytokines (IL-1β, IFNγ, TNFα, IL-6 and IL-12p70)", "setting": "[4]", "value": "induced the production of the cytokines in the mouse bone marrow-derived dendritic cells in an OSK-1 concentration dependent manner"},
      {"measurement": "IFNγ-producing cells in response to stimulation with the WT1 peptide (ELISpot)", "setting": "[5]", "value": "more cells produced IFNγ in response to the stimulation with the WT1 peptide"},
      {"measurement": "hair length", "setting": "[6]; 0.5% OSK-1 group, Day 17, compared with 3% minoxidil group", "value": "almost comparable to those in the 3% minoxidil group"},
      {"measurement": "hair regrowth score", "setting": "[6]; 0.5% OSK-1 group, compared with 3% minoxidil group", "value": "almost comparable to those in the 3% minoxidil group"},
      {"measurement": "hair growth", "setting": "[6]; 100 μL of 0.02%, 0.1% or 0.5% (w/v) solution on shaved dorsal skin once daily for 14 days", "value": "promote hair growth in a concentration dependent manner"}
    ]}
  ]
}
